From patent US8404825B2, “Method for producing monoterpene and monoterpinoid compounds and use thereof” (Board of Regents of the Nevada System of Higher Education, …, priority 2008, dated 2013)

How the values were obtained:
recombinant Ipi12D04 = assay: Functional assay of recombinant Ipi12D04 (pyridine nucleotide assay at 340 nm, GC-MS of products); type: biochemical, Ips pini; details: for reaction product of reduction by Ipi12D04 enzyme (stereoisomer by chiral GC): in the presence of NADPH, chiral column, compared with racemic standard
Experimental: Enzyme activity is determined by a pyridine nucleotide (PN) binding assay that monitors production or consumption of NADH/NADPH by measuring the absorbance of the catalysts reaction at 340 nm using a spectrophotometer. The reactions include reaction buffer (0.1 M NaP pH 7.8 and 1.1 mM EDTA), enzyme, PN, and substrate (monoterpene) in a 1 ml total volume and the absorbance was measured over time at room temperature. The volatiles produced from the reactions were extracted three times with pentane:ether (1:1) spiked with 200 n g/ml n-octanol (internal standard) and concentrated to approximately 100 ul with nitrogen gas. The samples were directly analyzed by coupled GC-MS at the Nevada Proteomics Center at UNR.
Enzyme activity was determined by a pyridine nucleotide (PN) binding assay that monitored production or consumption of NADH/NADPH spectrophotometrically. The reaction mixture included reaction buffer (0.1 M NaP pH 7.8 and 1.1 mM EDTA), enzyme, PN, and substrate (monoterpene) in a 1 ml total volume. The absorbance was measured over time at room temperature. The reactions were extracted three times with pentane:ether (1:1) spiked with 200 ng/ml n-octanol (internal standard) to extract monoterpenoids and concentrated to approximately 100 ul with nitrogen gas. The samples were directly analyzed by coupled GC-MS at the Nevada Proteomics Center at UNR.
Biochemical reactions catalyzed by recombinant Ipi12D04, as determined by functional assays, are summarized below. In general, the enzyme functions as an oxidoreductase, using NAD(P) or NAD(P)H as cofactors, depending on whether it is oxidizing or reducing a substrate. […] Negative controls for all reactions included media from un-infected cells.

Ips. typographus = details: cited from earlier work
[1] = test system: western populations of Ips pini; details: cited from earlier work
I. calligraphus = details: southeast U.S.; cited from earlier work

C=CC(=C)CC(=O)CC(C)C [ipsenone]
reaction product of reduction by Ipi12D04 enzyme (stereoisomer by chiral GC) (recombinant Ipi12D04): reaction product was pure (−)-ipsdienol

C=CC(=C)C[C@@H](O)CC(C)C [ipsenol]
behavioural response (Ips. typographus): anti-aggregation pheromone

C=CC(=C)C[C@@H](O)CC(C)C [(+)-ipsenol]
expected conversion by Ipi12D04 enzyme (recombinant Ipi12D04; enzyme incubated with both NAD(P) and NAD(P)H): readily converted to (−)-ipsenol

C=CC(=C)CC(O)C=C(C)C (racemic) [racemic ipsdienol, ipsdienol]
reaction product of oxidation by Ipi12D04 enzyme (recombinant Ipi12D04; with NADP, GC and mass spectrum compared with ipsdienone standard): converts racemic ipsdienol to ipsdienone
attractiveness as aggregation pheromone [1]: not attractive at all

C=CC(=C)CC(=O)C=C(C)C [ipsdienone]
reaction product of reduction by Ipi12D04 enzyme (stereoisomer by chiral GC) (recombinant Ipi12D04): reaction product was pure (−)-ipsdienol

C=CC(=C)CC(O)C=C(C)C (single isomer, unassigned; (+)) [(+)-ipsdienol]
behavioural response (attraction / dispersal) (I. calligraphus): dispersed

C=CC(=C)CC(O)C=C(C)C (single isomer, unassigned; (-)) [(−)-ipsdienol, 2-methyl-6-methylene-2,7-octadien-4-ol]
behavioural response (attraction / dispersal) (I. calligraphus): attracted
